The source of these data is patent US20250032446A1, “METHODS AND COMPOSITIONS FOR THE BIOSYNTHESIS AND USE OF DEMETHYLATED POLYMETHOXY FLAVONES” (RUTGERS, THE STATE UNIVERSITY OF NEW JERSEY, priority 2021, published 2025).

Common to all, as to type: cell-based, mouse
Series [1] is described as follows: MTT assay, pre-confluent cell proliferation. The note with it: mouse, pre-confluent 3T3-L1 preadipocytes, percent of control. The method, then:
3T3-L1 cells were purchased from American Type Culture Collection (ATCC, Rockville, MD) and maintained in MEME media with 10% FBS 1% penicillin/streptomycin (GIBCO, Paisley, UK) in a humidified atmosphere of 5% CO2 in air at 37° C. Cells were passaged by using 0.05% (vol) Trypsin and replated in 55-cm^2 dishes at a density of 1*10^4 cells/cm^2 until confluence.
(§1) For treatment, nobiletin and the mixture of 6- and 7-OH-nobiletin (M67N) in a 1:49 ratio were first dissolved in dimethyl sulphoxide (DMSO) to make stock solution (5 mM to 100 mM). (FIG. 20) The stock solution was then diluted by 1000 times with culture medium to designated concentrations. Cells cultured in full DMEM was set as negative control while cells treated with DM with 0.1% DMSO as positive control.
3T3-L1 cells were seeded on 96-well plate at density of 1×10^4 cells/well and incubated overnight for cell attachment. For measuring pre-confluent cell proliferation, cells were cultivated for 36 hours and full MEME with or without nobiletin or M67N was used. For measuring post-confluent cell proliferation during first three days of differentiation, cells were switched to DM with different concentrations of nobiletin or M67N for 72 hours. At the end of each treatment, cells were washed with PBS three times. MTT ([…]) was added at concentration of 0.5 mg/mL to the cells. After a 3-hour incubation, the medium was decanted from each well and 150 μL DMSO was added to dissolve the formed formazan crystals on a shaker. When the crystal was completely dissolved, the absorbance at 570 nm was measured. Cell viability was interpreted as the percentage (%) of the readout of treated cells divided by that of control. Six repeats were carried out for each concentration.
3T3-L1 cells were seeded on 96-well plate at density of 1×10^4 cells/well and were incubated overnight for cell attachment. For measuring pre-confluent cell proliferation, full MEME with or without nobiletin or 6-OH-nobiletin, or 7-OH-nobiletin was used and cells were cultivated for 36 hours. For measuring post-confluent cell proliferation during the first three days of differentiation, cells were treated after 2 days of confluence. Specifically, cells were switched to differentiation medium (DM) with different concentrations of targeted compounds for 24 hours. At the end of each treatment, cells were washed with PBS three times followed by the addition of 100 μL MTT at concentration of 0.5 mg/mL. After 3 hours' incubation, the medium in each well were decanted while 150 μL DMSO was added to dissolve the formed formazan crystals at a shaker. When the crystals were completely dissolved, the absorbance of at 590 nm was measured. Cell viability was interpreted as the percentage (%) of the readout of treated cells divided by that of control. Five repeats were carried out for each concentration.

The test system of series [2] is differentiating 3T3-L1 adipocytes. Description: Oil Red O staining, lipid accumulation. The method, then:
Two days after confluence, designated as day 0, adipocyte differentiation was initiated by culturing the cells for three days in differentiation medium (DM) which contained 10 μg/mL insulin, 0.5 mM IBMX, and 1 μM dexamethasone in complete culture medium. At day 3, the medium was replaced with DMEM, containing 10 μg/mL insulin. The medium was changed every two days until day 8. Cells were harvested on day 3 or day 8.
as §1
On day 8, cell layers were washed with 1×PBS and fixed with 10% paraformaldehyde (Sigma, St. Louis, MO, USA). After 15 minutes' fixation, the medium in each well was decanted and placed in a fume hood for complete dryness. Afterwards, cells were subjected to Oil Red O staining for 30 min, which was followed by immediate rinse in water. The intracellular lipid droplets were checked and pictures were captured on Olympus FSX100 Microscope. For the quantification of intracellular lipids, dyes were dissolved in 4% NP-40/isopropanol and the absorbance was measured at 520 nm by a microplate reader.

For another series, the system named is PPARγ. Description: Immunoblotting, PPARγ expression. The note with it: early treatment, day 3. The method, then: (§2) Primary antibodies which include AMPK-amAb, and Phospho-AMPKa(p-AMPKa) (Thr172) mAb, Acetyl-CoA Carboxylase (ACC) mAb, fatty acid synthase mAb RAs-related Nuclear protein (Ran) pAb, PPARc mAb, and C/EBPa pAb were all obtained from Cell Signaling Technology (Danvers, MA, USA). They were diluted by 1000 times for immunoblotting analyses.
(§3) At day 3 or day 8, cells are harvested with scraper and homogenized with lysis buffer containing 0.5 mM PMSF, 1 mM mini-complete protease inhibitor cocktail (Sigma, St. Louis, MO, USA) and phosphatase inhibitor cocktail (Sigma, St. Louis, MO, USA). Lysates are syringed with 26 gauge ½ in. needles on ice and then applied for centrifugation at 14,000g for 15 min at 4° C. Protein concentration of cell lysates are determined by using Protein and Protein Broad Range (BR) Assay Kits (Thermofisher, Waltham, MA USA) according to the venture's protocol. Lysates are then stored at −80° C. or immediately are subjected to sodium dodecyl sulfate polyacrylamide gel electrophoresis (SDS-PAGE). For the SDS-PAGE, cell lysates are mixed with loading buffer and heated at 95° C. for 5 min prior to electrophoresis. […] Quantification is performed by measuring band intensity using ImageJ software and calculating the ratio of protein of interesting to RAN the internal loading control.

The subject of the next series is C/EBPα. In words: Immunoblotting, C/EBPα expression. Conditions: early treatment, day 3. The procedure: as §2, §3
A general note: Immunoblotting shows a protein as a band on a membrane.

With `COc1ccc(-c2cc(=O)c3c(OC)c(O)c(OC)c(OC)c3o2)cc1OC` [6-OH-nobiletin, 6-hydroxy-5,7,8,3′,4′-pentamethoxyflavone], the viability at 36 h, 75 µM in series [1] (75 μM) was ~82%. Also, the viability at 36 h, 100 µM in series [1] (100 μM) was ~65%. This compound also displayed an intracellular lipid content in series [2] (15 μM, relative to positive control) of 69.8±2.1%. In addition, in series [2] (50 μM, early phase treatment (day 0 to day 3)), the “decrease of lipid content” value turned out to be 50%. Moreover, the “lipid formation / accumulation reduced to” value in series [2] (50 μM, relative to positive control) amounted to 24.3±4.2%. In addition, the inhibition at 50 µM in series [2] (Mus musculus, 3T3-L1, 50 μM, late-phase treatment (day 4 to day 8), read-out: inhibition of lipid accumulation) came to 72%. In addition, the “effect of early phase and late phase treatment on lipid accumulation” value in series [2] (early phase day 0-3, late phase day 4-8) is “suppressed the lipid accumulation in a dose-dependent matter”. Moreover, the “effect on intracellular lipid accumulation” value in series [2] (various concentrations, Oil Red O at day 8) is given as “obvious suppressive effect on intracellular lipid accumulation”. The “expression level of PPARγ” value with PPARγ is listed as “dose-dependently suppressed”. For the same compound, the “production of C/EBPα” value in the series with C/EBPα was “greatly reduced”.

As usually defined, the viability is a per cent measure of how many cells are alive, often set against a control. In general, inhibition refers to the drop in the measured response relative to a control, in per cent.
